Patent US8716478B2, “Boron-containing small molecules” (Anacor Pharmaceuticals, Inc., priority 2010, dated 2014)
Like-named read-outs stand apart in the source and are kept apart here.

How the values were obtained:
[1] = Pharmacokinetics and oral bioavailability after IV and PO dosing; assay type: in vivo, female CD-1 mice; settings: plasma; for bioavailability / AUC: female, CD-1, mouse; for bioavailability: po; for AUC: 10 mg/kg oral suspension dose; for clearance: mouse, 5 mg/kg, female CD-1 mice, intravenous
Method: The objective of this study was to evaluate the pharmacokinetics and oral bioavailability of PDE4 inhibitors following intravenous (IV) administration and oral (PO) doses in female CD-1 mice.
After dosing, blood samples were collected through 24 h, twice from each animal at specific times (3 mice/time point), into microcentrifuge tubes containing K2EDTA (anticoagulant), stored on wet ice and processed for plasma. The plasma samples were analyzed for concentrations of parent compound by LC/MS/MS using an internal standard/peak area method. Pharmacokinetic analysis of the mean plasma concentration-time profiles following IV and PO administration was performed.
[…] Dosing solutions for intravenous administration were prepared in 55% PEG300/25% PG/20% water. Oral dosing used a suspension prepared in 1% CMC in water with 0.1% Tween 80.
After dosing, blood samples were collected through 24 h, twice from each animal via retro-orbital bleed (˜0.1 mL, 1st time point) or cardiac puncture (˜0.6 mL, 2nd time point) at specific times (3 mice/time point), into microcentrifuge tubes containing K2EDTA (anticoagulant) and stored on wet ice prior to processing.
Plasma was prepared by centrifugation of blood samples for 6 min at approximately 2000×g or 6000 rpm at 4° C. All processed plasma samples (˜50 μL and 300 μL) were transferred to analysis tubes, placed on dry ice immediately and later stored at −80° C. until analysis for concentrations of experimental compound by LC/MS/MS.
Mouse IV clearance, Mouse Oral AUC and Oral Bioavailability are provided below. 6-(1-Hydroxy-1,3-dihydrobenzo[c][1,2]oxaborol-5-yloxy)-2-(2-isopropoxyethoxy)nicotinonitrile (D140) and 6-(1-hydroxy-1,3-dihydrobenzo[c][1,2]oxaborol-5-yloxy)-2-(4-oxopentyloxy)nicotinonitrile (D141) are disclosed in U.S. patent application Ser. No. 12/399,015, filed Mar. 5, 2009.

[2] = tested on: TNF-α in peripheral blood mononuclear cells (PBMCs); assay: TNF-α inhibition in LPS-stimulated peripheral blood mononuclear cells; assay type: cell-based; settings: PBMC
Method: Peripheral blood mononuclear cells (PBMCs) pooled from 10-20 donors were obtained from a local blood bank, ficoll gradient purified, and stored frozen in liquid nitrogen. Cells were thawed and seeded into 96-well plates at 5×10^5 cells/well in RPMI 1640 with 10% heat-inactivated fetal calf serum (MediaTech, Inc, Hearndon, Va., USA), Test articles were evaluated at the indicated concentrations in 150 μL media containing <2% DMSO, final, with stimulant and PBMCs. Cells were stimulated with lipopolysaccharide (LPS, phenol-extract from E. coli, Sigma-Aldrich, St. Louis, Mo.) at 1 μg/mL. Stimulation was with LPS for 24 h to measure TNF-α. Cytokines in supernatants were analyzed with a FACSArray flow cytometer (BD Biosciences, San Jose, Calif., USA) using the BD Cytometric Bead Array (CBA) Flex Set (BD Biosciences). IC50 values were calculated using the four parameter logistic equation.

human PDE4 enzyme = assay: Phosphodiesterase 4 (PDE4) inhibition, semi-purified enzyme from human U937 cells; assay type: biochemical
TNF-α = assay: In vivo TNF-α release in LPS treated mice; design: species or system Swiss Webster mice
Method: In vivo TNF-α release was measured in Swiss Webster mice, 10/group. Animals were dosed via oral gavage with drug 1% CMC suspension. Thirty minutes later LPS, 1.5 mg/kg was administered by intraperitoneal injection. Ninety minutes later animals were sacrificed, blood was collected by exsangination and serum prepared for analysis. TNF-α concentration was assessed by ELISA, non-drug treated animals had TNF-α levels 1000-3000 pg/mL. 6-(1-Hydroxy-1,3-dihydrobenzo[c][1,2]oxaborol-5-yloxy)-2-(2-isopropoxyethoxy)nicotinonitrile (D140) and 6-(1-hydroxy-1,3-dihydrobenzo[c][1,2]oxaborol-5-yloxy)-2-(4-oxopentyloxy)nicotinonitrile (D141) are disclosed in U.S. patent application Ser. No. 12/399,015, filed Mar. 5, 2009.

[3] = tested on: Schistosoma mansoni schistosomula; assay: Schistosoma mansoni schistosomula phenotypic screen; settings: for phenotypes caused by positive control compounds in schistosomula: positive controls; for Schistosomula (juvenile infective form) worm screen phenotype, 24 h: Second Set, 5 uM
Source text: (§1) Puerto Rican isolates of S. mansoni using Biomphalaria glabrata snails and golden hamsters as intermediate and definitive hosts, respectively, were maintained and handled in the University of California-San Francisco Sandler Center for Tropical Medicine. Patent B. glabrata snails (6-8 weeks after exposure to 5-10 infectious miracidia) were induced to shed infective larvae (cercariae) under light stimulus into the surrounding water. Cercariae were washed in rounds of ice-cold water and concentrated through and over sieves of varying pore sizes. They were then mechanically sheared (separation of heads from tails) as described in Colley D G, et al. Exp Parasitol 1974, 35:44-51, in ice-cold Incomplete Medium 169 (as described in Basch P F. J Parasitol 1981, 67:179-185, minus FBS and antibiotics) by passing 15 times through a double headed 22-gauge syringe needle connected to two 10 mL syringes. The resulting cercarial heads (schistosomula) were separated from their tails by swirling in a petri dish. Concentrated schistosomula were added to a sterile 1.5 mL centrifuge tube and allowed to settle over ice. Schistosomula were transferred to a sterile environment and washed 4 times in Incomplete Medium 169 prior to plating.
(§2) Two sets of screening were performed. In the first set, compounds were screened against schistosomula and observations were made at 24 hours, 2 days, 3 days, 4 days, and 6 days. In the second set, compounds were screened against schistosomula with observations at 24 hours, 2 days, 3 days, and 4 days and adult worms at 7 hours, 24 hours, 4 days, and 6 days.
Plates contain 200 schistosomula/well in […] complete Basch medium and were maintained at 37° C. in a 5% CO2 atmosphere. All compounds were tested in duplicate with at least two experimental replicates. Compounds and control compounds were added to the plates using the Biomek FXp using 96-well disposable tips. Final concentration of DMSO in each well was 0.5%.
(§3) A semi-quantitative and controlled nomenclature for phenotypes that can arise as a result of compound insult to both schistosomula and adults was utilized (Abdulla M H, et al., PLoS Negl Trop Dis 2009, 3:e478). Phenotypes were recorded by visual inspection and on a flexible time basis but at least at 24 h and 4 day time-points in the case of large scale screening. […] To help eliminate bias, two screen analysts scored phenotypes ‘blind’ both to knowledge of the contents of each screening plate and the phenotypes scored by his/her colleague. Upon completing their individual assessments, each analyst's ‘hit sheet’ was then compared to derive a ‘consensus hit sheet’. Discrepancies in analysts' hit sheets were re-evaluated under the microscope to eventually make a consensus hit call.
(§4) Hyper-coiled and coiled represent a verbal description of the visual phenotype as compared to the DMSO control. The + and ++ and +++ means more of the phenotype which preceded it. The − means less of the phenotype which preceded it. Results

[4] = tested on: Schistosoma mansoni adult worms; assay: Schistosoma mansoni adult worm phenotypic screen; settings: for phenotypes caused by positive control compounds in adult worms: positive controls
Source text: as §1, §2
Given the delicacy and size (0.5-1.5 cm in length) of this stage all operations were performed manually by the Sandler Center. 24-well plates were set up with compound (final DMSO concentration=0.5%) containing approximately 5 pairs of worms (S. mansoni has separate sexes) in 2 mL complete Basch medium per well. Plates were maintained at 37° C. in a 5% CO2 atmosphere. All compounds were tested in duplicate with at least two experimental replicates.
as §3, §4

Brugia malayi = Brugia malayi in vitro assay, adult female worms; settings: 50 uM
Method: Adult female worms are shipped from TRS Labs Inc. (Nonglak Supakorndej, Lab Director, 295 Research Dr., Athens, Ga. 30605; 706-549-0764) via Fed Ex. Individual worms are shipped in 2 mls vials with RPMI on Mondays and arrive at the […] Center lab on Tuesday mornings. Individual worms are poured into each well (24-well tissue culture plates) to avoid handling worms since they are very delicate and easily broken. Transport media is removed and replaced with 0.5 mls of RPMI-1640 (25 mM HEPES, 2 g/L NaHCO3, Antibiotic/Antimycotic, 5% HI FBS). Worms are maintained in a 37° C. 5% CO2 incubator. Compounds are added directly to each duplicate well (5 ul of 5 mM for a final concentration of 50 uM). DMSO (5 ul) is used as a negative control and Ivermectin (Sigma) is used as a positive control at 100 uM/well and 20 uM/well. Adult filarial nematodes can shed/give birth to microfilarial worms (mf) during the course of the assay. Wells were reviewed for the presence of mf, and the viability of mf, by visual observation of the well on the last day of observation (Day 7). Plates are examined once a day for 4-7 days. […] If changes are observed, worms are more closely examined under a dissecting microscope.

[5] = under similar conditions, read-out: TNF-α IC50 value
[6] = under similar conditions, read-out: PDE4 IC50 value

Row | Structure (SMILES) | bioavailability [1] | AUC [1] | clearance [1] | % Inhibition of TNFa Blood Levels in LPS Treated Mice (TNF-α; Oral Dose 3 mg/kg) | % Inhibition of TNFa Blood Levels in LPS Treated Mice (TNF-α; Oral Dose 10 mg/kg) | % Inhibition of TNFa Blood Levels in LPS Treated Mice (TNF-α; Oral Dose 30 mg/kg) | phenotypes caused by positive control compounds in schistosomula [3] | phenotypes caused by positive control compounds in adult worms [4] | Adult worm screen phenotype, 7 h ([4]; 5 uM) | further results
1 | CC(=O)CCCOc1nc(Oc2ccc3c(c2)COB3O)ccc1C#N [Compound D141, 6-(1-hydroxy-1,3-dihydrobenzo[c][1,2]oxaborol-5-yloxy)-2-(4-oxopentyloxy)nicotinonitrile, reference compound] | 32% | 1300 ng·h/mL | 43.3 mL/min/kg | 36.1% | 52.4% | 67.1% |  |  |  | IC50 [2, 5]: 1.2 nM; IC50 (human PDE4 enzyme; [6]): 3.1 nM
2 | O=C(Nc1ccc([N+](=O)[O-])cc1Cl)c1cc(Cl)ccc1O [niclosamide, reference compound] |  |  |  |  |  |  | dose-dependent, rapid and severe phenotypes | dose-dependent, rapid and severe phenotypes |  | 
3 | O=C(Nc1ccc(Oc2ccc(Cl)cc2)c(Cl)c1)c1cc(I)cc(I)c1O [rafoxanide, reference compound] |  |  |  |  |  |  | dose-dependent, rapid and severe phenotypes | dose-dependent, rapid and severe phenotypes |  | 
4 | CC(C)OCCOc1nc(Oc2ccc3c(c2)COB3O)ccc1C#N [Compound D140, 6-(1-Hydroxy-1,3-dihydrobenzo[c][1,2]oxaborol-5-yloxy)-2-(2-isopropoxyethoxy)nicotinonitrile] | 24% | 810 ng·h/mL | 56.7 mL/min/kg | 59.35% | 74% | 83.5% |  |  | O++ | IC50 [2, 5]: 3.6 nM; IC50 (human PDE4 enzyme; [6]): 9 nM; % Inhibition of TNFa Blood Levels in LPS Treated Mice (TNF-α; Oral Dose 0.3 mg/kg): 26.4%; % Inhibition of TNFa Blood Levels in LPS Treated Mice (TNF-α; Oral Dose 0.5 mg/kg): 30%; % Inhibition of TNFa Blood Levels in LPS Treated Mice (TNF-α; Oral Dose 1 mg/kg): 50.2%; % Inhibition of TNFa Blood Levels in LPS Treated Mice (TNF-α; Oral Dose 5 mg/kg): 72%
5 | N#Cc1ccc(Oc2ccc3c(c2)COB3O)nc1 [6-(1-hydroxy-1,3-dihydrobenzo[c][1,2]oxaborol-5-yloxy)nicotinonitrile] |  |  |  |  |  |  |  |  | O− | Schistosomula (juvenile infective form) worm screen phenotype, 24 h ([3]; 24 h): R−, O,
6 | CC(C)OCCOc1nc(Oc2ccc3c(c2)COB3O)ccc1C#N [6-(1-hydroxy-1,3-dihydrobenzo[c][1,2]oxaborol-5-yloxy)-2-(4-isopropoxy-ethoxy)nicotinonitrile] |  |  |  |  |  |  |  |  |  | worm activity score / phenotype, Day 3 (Brugia malayi; trial two): 4 (highly active (controls))
7 | O=C(C1CCCCC1)N1CC(=O)N2CCc3ccccc3C2C1 (stereo not shown) [PZQ, reference compound] |  |  |  |  |  |  | dose-dependent, rapid and severe phenotypes | dose-dependent, rapid and severe phenotypes |  | 
8 | COc1nc(Oc2cc3c(cc2F)B(O)OC3)ccc1C#N [6-(6-Fluoro-1-hydroxy-1,3-dihydrobenzo[c][1,2]oxaborol-5-yloxy)-2-methoxynicotinonitrile] |  |  |  |  |  |  |  |  | O++ | schistosomula phenotype, 24 h ([3]; First Set, 24 h): O+
9 | N#Cc1ccc(Oc2ccc3c(c2)COB3O)nc1OC1CCCC1 [2-Cyclopentyloxy-6-(1-hydroxy-1,3-dihydro-benzo[c][1,2]oxaborol-5-yloxy)-nicotinonitrile] |  |  |  |  |  |  |  |  | O+ | Schistosomula (juvenile infective form) worm screen phenotype, 24 h ([3]; 24 h): R, O+; Adult worm screen phenotype, 24 h ([4]; 5 uM, 24 h): O−
10 | CC(=O)CCCOc1nc(Oc2ccc3c(c2)COB3O)c(Cl)cc1C#N [Compound D231, 5-Chloro-6-(1-hydroxy-1,3-dihydrobenzo[c][1,2]oxaborol-5-yloxy)-2-(4-oxopentyloxy)nicotinonitrile] | 96% | 8500 ng·h/mL | 25 mL/min/kg | 75.6% | 85.6% | 97.3% |  |  |  | IC50 ([2]; PBMCs, LPS 1 μg/mL for 24 h, read-out: Proinflammatory TNF-α IC50): 0.44 nM; IC50 (human PDE4 enzyme; 1 μM cAMP, 20 minutes at 25° C., read-out: PDE4 IC50): 0.8 nM; % Inhibition of TNFa Blood Levels in LPS Treated Mice (TNF-α; Oral Dose 0.03 mg/kg): 0%; % Inhibition of TNFa Blood Levels in LPS Treated Mice (TNF-α; Oral Dose 0.1 mg/kg): 22%; % Inhibition of TNFa Blood Levels in LPS Treated Mice (TNF-α; Oral Dose 0.3 mg/kg): 33.6%; % Inhibition of TNFa Blood Levels in LPS Treated Mice (TNF-α; Oral Dose 1 mg/kg): 69.5%; % Inhibition of TNFa Blood Levels in LPS Treated Mice (TNF-α; Oral Dose 1.5 mg/kg): 58%; % Inhibition of TNFa Blood Levels in LPS Treated Mice (TNF-α; Oral Dose 5 mg/kg): 85.5%; % Inhibition of TNFa Blood Levels in LPS Treated Mice (TNF-α; Oral Dose 15 mg/kg): 81.3%; worm activity score / phenotype, Day 3 (Brugia malayi; trial one): 2 to 3; worm activity score / phenotype, Day 3 (Brugia malayi; trial two): 2 to 3
